# According to publication PMC4076210, “Discovery of Novel AKT Inhibitors with Enhanced Anti-Tumor Effects in Combination with the MEK Inhibitor” (PLoS ONE, 2014):
# Columns and labels:
# [1] = set-up: method as in PMID 18381444; settings: mice; cited from earlier work
# [2] = tested on: CAPAN-2 tumor xenografts; assay: Xenograft tumor growth inhibition, combination with MEK inhibitor; assay type: in vivo, mouse; settings: 0.3 mg/kg, day 69
# Description: (§1) Tumors were initiated by injecting either cells (SKOV3, CAPAN-2 and HPAC) or a tumor fragments (BT474) subcutaneously into 6–8 week female athymic nude (SKOV3) and SCID (all others) mice. Once tumors reached between 120 and 300 mm^3, mice were randomized according to tumor volume into groups of n = 7–10 mice per treatment. GSK2110183 and GSK2141795 were administered daily at various doses by oral gavage. In combination experiments, GSK1120212 was also administered daily by oral gavage. Tumor volumes and body weight were measured twice weekly, tumor volume was measured with calipers and calculated using equation: […]. Results are represented as percent inhibition on completion of dosing = 100 x [1- average growth of drug-treated population/average growth of vehicle-treated control population].
# [3] = tested on: HPAC tumor xenografts; assay: as above; assay type: in vivo, mouse; settings: 0.3 mg/kg daily, day 42
# Description: as §1
SMILES,hyperglycemia (blood glucose) [1],TGI [2],TGI [3]
CCn1c(-c2nonc2N)nc2c(C#CC(C)(C)O)ncc(OC[C@H]3CCCNC3)c21 [GSK690693],~500 mg/dL,–,–
"CC(=O)Nc1cccc(-n2c(=O)n(C3CC3)c(=O)c3c(Nc4ccc(I)cc4F)n(C)c(=O)c(C)c32)c1 [GSK1120212, trametinib, reference compound]",–,90%,65%
